Tests used:
[1] = Clinical study of CPI-613 Drug Compound with gemcitabine hydrochloride and nab-paclitaxel: tolerance; format: in vivo; conditions: 500 mg/m^2 with Gemcitabine+nab-paclitaxel on days 1 and 15, human patients
Text: Human patients suffering from locally advanced or metastatic pancreatic cancer are to be administered 6,8-bis(benzylsulfanyl)octanoic acid triethanolamine ion pair in combination with gemcitabine hydrochloride and nab-paclitaxel. Experimental procedures are described below.
[…] CPI-613 Drug Compound is 6,8-bis(benzylsulfanyl)octanoic acid triethanolamine ion pair.

human H460 NSCLC cells = test: Oral anti-tumor efficacy in human H460 NSCLC xenografts in mice; format: in vivo, CD1-Nu/Nu female mice; conditions: H460 xenograft; oral 100 mg/kg on day 8, 15, 22, 29; versus 5% dextrose or untreated
Procedure: Human H460 NSCLC cells were obtained from American Type Cell Culture (ATCC) (catalog no. HTB-177, Manassas, Va.). These cells tested negative for viral contamination using the Mouse Antibody Production (MAP) test, performed by Charles River Labs Molecular Division, upon the receipt of the tumor cells from ATCC. The tumor cells were maintained at […] in a humidified 5% CO2 atmosphere in T225 tissue culture flasks containing 50 mL of Roswell Park Memorial Institute (RPMI)-1640 solution with 10% Fetal Bovine Serum (FBS) and 2 mM L-glutamine. Cells were split at a ratio of 1:10 every 2-3 days by trypsinization and resuspended in fresh medium in a new flask. Cells were harvested for experiments in the same way at 70-90% confluency.
CD1-Nu/Nu female mice, ˜4-6 weeks old were obtained from Charles River Laboratories. Mice were housed 5 to a cage in a micro-isolator room in the Department of Animal Laboratory Research of New York State University (SUNY) at Stony Brook. Light-dark cycles were 12 h each daily, with light from 7 a.m. to 7 p.m. […]
An acclimation period of 7 days was allowed between the arrival of the animal at the study site before tumor inoculation and experimentation. […] Tumor dimensions (length and width) were measured daily before, during and after treatment (using Vernier calipers) and the tumor volume was calculated using the prolate ellipsoid formula: (length×width^2)/2. […]

[2] = tested on: BxPC3 pancreatic cancer cells; test: Oral anti-tumor efficacy in human BxPC3 pancreatic cancer xenografts in mice; format: in vivo, CD-1 nude mice; conditions: BxPC3 xenograft; oral dose of 100 mg/week for 4 weeks; versus 5% dextrose or untreated
Procedure: An acclimation period of 7 days was allowed between the arrival of the animal at the study site before tumor inoculation and experimentation. Mice were inoculated subcutaneously (SC) in the right flank with 2×10^6 human H460 NSCLC or BxPC3 pancreatic cancer cells that were suspended in 0.1 mL of Dulbeco's Phosphate Buffered Salt (PBS) solution using a 1 cc syringe with a 27-⅝ gauge needle. Tumor dimensions (length and width) were measured daily before, during and after treatment (using Vernier calipers) and the tumor volume was calculated using the prolate ellipsoid formula: (length×width^2)/2. Treatment with test or control articles began 8 days post tumor cell implantation when the tumor was approximately 300 mm^3.
A similar study was conducted in CD-1 nude mice (n=9) inoculated with 2×10^6 BxPC-3 cells. The study was initiated when tumors reached an average size of 150 mm^3 (day 0) and CPI-613 was administered at an oral dose of 100 mg/week for 4 weeks. A comparator arm (n=9) was conducted with IP treatment at a weekly dose of 25 mg/kg.

| SMILES | tolerance of regimen [1] | tumor growth (human H460 NSCLC cells) | tumor growth [2] |
| --- | --- | --- | --- |
| O=C(O)CCCCC(CCSCc1ccccc1)SCc1ccccc1.OCCN(CCO)CCO (stereo not drawn) [CPI-613 Drug Compound, 6,8-bis(benzylsulfanyl)octanoic acid triethanolamine ion pair] | excellent tolerance |  |  |
| O=C(O)CCCCC(CCSCc1ccccc1)SCc1ccccc1 (stereo not drawn) [6,8-bis(benzylsulfanyl)octanoic acid] |  | grew much more slowly | especially pronounced |

— patent US11622950B2
